Test results from patent US10568937B2, “Formulations of abaloparatide, transdermal patches thereof, and uses thereof” (priority 2016, dated 2020).

Experiments:
rat femur fracture model = assay: Rat femur fracture model, fracture healing; type: in vivo
Text: Certain embodiments of the methods disclosed herein also include the use of the microprojection arrays as described herein in their various embodiments to accelerate fracture healing in a patient who has suffered one or more fractures and for which the fractures are not completely healed. Healing of bone fractures (eg long bone fractures) involves endochondral and intramembranous bone formation, which together form a callus that achieves union, stabilization, and gradual recovery of bone strength. […] Sixteen rats from each group were necropsied after 4 and 6 weeks of healing, with 12 fractured femurs per group used for micro-CT and biomechanical testing and the other 4 femurs used for micro-CT and histology.

[1] = Subcutaneous 80 μg abaloparatide versus placebo: fractures, BMD, TBS; type: in vivo; details: subcutaneous administration
Experimental: In certain embodiments, the abaloparatide-SC treatment comprises subcutaneous administration of an aqueous formulation comprising abaloparatide (about 2 mg/mL) in an acetate buffer, with a pH of about 4.5 to about 5.6, or about 5.1. Optionally, the aqueous formulation further comprises phenol (about 5 mg/mL). In certain examples of these embodiments, the acetate buffer comprises tri-hydrate sodium acetate (about 5 mg/mL) with pH (e.g., about 4.5 to about 5.6, or about 5.1) adjusted with acetic acid. Unless specifically stated otherwise, comparative abaloparatide sc dose use an 80 μg dose delivered subcutaneously to the periumbilicular region of the abdomen of the patient.

[2] = tested on: ovariectomy-induced osteopenic rats and monkeys; details: cited from earlier work

Substance: [Glu^22,25, Leu^23,28,31, Aib^29, Lys^26,30]hPTHrP(1-34)NH2 [abaloparatide]
- callus stiffness, higher vs VEH (rat femur fracture model; 5 ug/kg/d, week 4, three-point bending): 60%
- callus stiffness, higher vs VEH (rat femur fracture model; 5 ug/kg/d, week 6): 112%
- callus peak load, higher vs VEH (rat femur fracture model; 25 ug/kg/d, week 4): 77%
- callus stiffness, higher vs VEH (rat femur fracture model; 25 ug/kg/d, week 4, three-point bending): 96%
- callus area (histomorphometry) (rat femur fracture model; 5 and 25 ug/kg/d, week 4, vs VEH): significantly greater callus area
- callus bone volume, bone volume fraction, and BMC (micro-CT) (rat femur fracture model; 5 and 25 ug/kg/d, weeks 4 and 6, vs VEH): significantly greater
- cortical bridging across the fracture gap (semi-quantitative histologic scoring) (rat femur fracture model; 5 or 25 ug/kg/d sc daily, week 4, vs VEH): significantly greater bridging
- callus peak load vs VEH (rat femur fracture model; both abaloparatide groups, week 6): numerically higher
- BMD and/or TBS at the lumbar spine, total hip, and femoral neck [1]: improve
- bone loss [2]: complete reversal of bone loss
